Experimental findings from PubChem BioAssay (NCI) are described below.

Where “and” joins values, the source holds several entries; their conditions need not be identical. Identical values can stand only once.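 Following 48 hours of exposure in 96-well plates, responses at five concentrations were used to interpolate endpoints linearly. Here, GI50 denotes the concentration required for 50% inhibition of growth. TGI: concentration producing complete growth inhibition.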

Test systems include OVCAR-8 ovarian; MALME-3M melanoma; CCRF-CEM leukemia; SF-295 CNS; RPMI-8226 leukemia; NCI-H226 lung; NCI/ADR-RES ovarian; NCI-H23 lung; NCI-H522 lung; HOP-62 NSCLC.
Holding throughout (experiment): inhibition of tumour cell growth, NCI panel, 48 h

Regarding `COc1cc2c3c(c1)c1cc(OC)c(OC)cc1c[n+]3CC2`, the GI50 was 1.86 µM in the experiment with OVCAR-8 ovarian; 2.71 µM with MALME-3M melanoma; 69.8 µM with CCRF-CEM leukemia; 4.13 µM with NCI-H226 lung; greater than 100 µM in the experiment on NCI/ADR-RES ovarian; 1.93 µM in the experiment on NCI-H522 lung. The GI50 with HOP-62 NSCLC was 3.24 µM. For the same molecule, the TGI in the experiment on OVCAR-8 ovarian was 50 µM and 43.6 µM; with MALME-3M melanoma, 7.93 µM and 13 µM; in the experiment with CCRF-CEM leukemia, greater than 100 µM; in the experiment with SF-295 CNS it was 50 µM and > 100 µM; with RPMI-8226 leukemia, 50 µM; in the experiment on NCI-H226 lung, 50 µM and 77.3 µM. Moreover, the TGI with NCI/ADR-RES ovarian was greater than 100 µM; in the experiment with NCI-H23 lung, 45.6 µM and > 100 µM; in the experiment on NCI-H522 lung it was 14.8 µM and 37.1 µM; in the experiment on HOP-62 NSCLC it was 50 µM and > 100 µM.

In the case of `OCCSCc1ccccc1`, the TGI in the experiment with OVCAR-8 ovarian, with MALME-3M melanoma, with CCRF-CEM leukemia, in the experiment on SF-295 CNS, in the experiment with RPMI-8226 leukemia and in the experiment with NCI-H226 lung was greater than 100 µM each time. For the same molecule, the TGI in the experiment with NCI/ADR-RES ovarian, with NCI-H23 lung, with NCI-H522 lung and with HOP-62 NSCLC was greater than 100 µM in each case.

In the case of `COC1CC2C=C(C)/C=C/C=C/C(=O)NC(c3ccccc3)C/C=C/CCC(O)CC(=O)C2=C1O` (stereo not drawn), the GI50 is 0.208 µM in the experiment with OVCAR-8 ovarian; 0.214 µM with MALME-3M melanoma; 0.284 µM in the experiment on CCRF-CEM leukemia; 0.246 µM in the experiment on SF-295 CNS; 0.186 µM in the experiment on RPMI-8226 leukemia; 0.43 µM with NCI-H226 lung. For the same molecule, the GI50 with NCI/ADR-RES ovarian was 0.309 µM; in the experiment with NCI-H23 lung, 0.24 µM; in the experiment with NCI-H522 lung, 0.211 µM; in the experiment on HOP-62 NSCLC, 0.275 µM. Also, the TGI in the experiment on OVCAR-8 ovarian was 0.904 µM; in the experiment with MALME-3M melanoma it was 1.19 µM; with CCRF-CEM leukemia it was 1.3 µM; with SF-295 CNS it was 0.788 µM; in the experiment with RPMI-8226 leukemia, 0.566 µM; in the experiment with NCI-H226 lung it was 2.17 µM. Moreover, the TGI is 1.19 µM with NCI/ADR-RES ovarian, 1.11 µM with NCI-H23 lung, 0.693 µM in the experiment with NCI-H522 lung and 1.53 µM with HOP-62 NSCLC.

As to `O=C1C=C(Br)C(=O)C12CCc1ccccc12` (stereo not drawn), the TGI was 64.6 µM in the experiment with OVCAR-8 ovarian; 29.5 µM in the experiment on MALME-3M melanoma; greater than 27.5 µM in the experiment with CCRF-CEM leukemia; 36.6 µM in the experiment with SF-295 CNS; greater than 37.5 µM with RPMI-8226 leukemia; 35.8 µM in the experiment with NCI-H226 lung. Moreover, the TGI in the experiment on NCI/ADR-RES ovarian came out at 81.3 µM; in the experiment with NCI-H23 lung, 44.6 µM; with NCI-H522 lung, 10.2 µM; in the experiment on HOP-62 NSCLC it was 69 µM.

Consider `NNc1nc2ccccc2c(=O)n1NC(=O)C(=O)Nc1cccc(C(F)(F)F)c1`, for which the TGI with OVCAR-8 ovarian, in the experiment with MALME-3M melanoma, in the experiment with CCRF-CEM leukemia, in the experiment with SF-295 CNS, in the experiment with RPMI-8226 leukemia and in the experiment on NCI-H226 lung was greater than 100 µM throughout. The TGI in the experiment with NCI/ADR-RES ovarian, in the experiment with NCI-H23 lung, in the experiment on NCI-H522 lung and with HOP-62 NSCLC was greater than 100 µM each time.

`O=c1nc(Nc2cccc(Cl)c2)oc2cc(Cl)oc(=O)c12`: the GI50 in the experiment on OVCAR-8 ovarian is 7.06 µM; in the experiment on MALME-3M melanoma it was 4.36 µM; in the experiment on CCRF-CEM leukemia, 2.87 µM; in the experiment on SF-295 CNS, 12.1 µM; in the experiment with RPMI-8226 leukemia it was 4.02 µM; in the experiment on NCI-H226 lung, 17.1 µM. For the same molecule, the GI50 was 13.4 µM in the experiment with NCI/ADR-RES ovarian, 7.15 µM with NCI-H23 lung, 2.45 µM in the experiment with NCI-H522 lung and 11 µM in the experiment with HOP-62 NSCLC. For the same molecule, the TGI in the experiment on OVCAR-8 ovarian is 32.1 µM; in the experiment with MALME-3M melanoma, 18.8 µM; with CCRF-CEM leukemia it was 14.9 µM; with SF-295 CNS it was 43 µM; in the experiment with RPMI-8226 leukemia, 43.1 µM; in the experiment on NCI-H226 lung, 73.6 µM. Further, the TGI with NCI/ADR-RES ovarian amounted to 70.5 µM; in the experiment with NCI-H23 lung, 23.7 µM; in the experiment with NCI-H522 lung, 8.16 µM; in the experiment with HOP-62 NSCLC it was 31.4 µM.

Consider `CN(C)N1C(=O)c2ccccc2NC1c1ccccc1` (stereo not drawn), for which the TGI in the experiment on OVCAR-8 ovarian, with MALME-3M melanoma, in the experiment with CCRF-CEM leukemia, in the experiment with SF-295 CNS, in the experiment on RPMI-8226 leukemia and with NCI-H226 lung was greater than 100 µM in each case. In addition, the TGI in the experiment with NCI/ADR-RES ovarian, in the experiment on NCI-H23 lung, in the experiment with NCI-H522 lung and in the experiment with HOP-62 NSCLC was greater than 100 µM throughout.

`CCOC(=O)C(Cc1c[nH]c2ccc(N(CCCl)CCCl)cc12)(NC(C)=O)C(=O)OCC`: the GI50 is 14.3 µM and 19.8 µM with OVCAR-8 ovarian; 11.1 µM in the experiment with MALME-3M melanoma; 1.33 µM and 1.47 µM in the experiment with CCRF-CEM leukemia; 5.41 µM and 4.2 µM in the experiment with SF-295 CNS; 6.41 µM with RPMI-8226 leukemia; 14.1 µM and 19.4 µM in the experiment with NCI-H226 lung. Further, the GI50 is 14.6 µM and 11.7 µM in the experiment on NCI/ADR-RES ovarian; 5.99 µM and 9.89 µM in the experiment with NCI-H23 lung; 0.17 µM in the experiment with NCI-H522 lung; 14.4 µM and 10.1 µM in the experiment on HOP-62 NSCLC. Besides, the TGI in the experiment with OVCAR-8 ovarian was 45 µM; in the experiment on MALME-3M melanoma, 28.3 µM; with CCRF-CEM leukemia it was 5.21 µM and 19.9 µM; with SF-295 CNS, 32 µM and 232 µM; with RPMI-8226 leukemia it was 33.4 µM; in the experiment with NCI-H226 lung it was 41.4 µM and 67.9 µM. Further, the TGI is 47.3 µM and 64.3 µM in the experiment on NCI/ADR-RES ovarian; 31.2 µM and 64.8 µM in the experiment on NCI-H23 lung; 1.93 µM in the experiment with NCI-H522 lung; 51.7 µM and 66.8 µM in the experiment on HOP-62 NSCLC.

Consider `NC1CCN(c2nc(Nc3cccc(C(F)(F)F)c3)c3c(=O)[nH]ccc3n2)CC1`, for which the GI50 in the experiment with OVCAR-8 ovarian was 2.06 µM; with MALME-3M melanoma it was 1.88 µM; with CCRF-CEM leukemia it was 1.26 µM; in the experiment with SF-295 CNS it was 1.96 µM; with RPMI-8226 leukemia it was 1.91 µM; in the experiment on NCI-H226 lung it was 1.86 µM. In addition, the GI50 is 1.87 µM in the experiment on NCI/ADR-RES ovarian, 1.58 µM in the experiment on NCI-H23 lung, 1.76 µM with NCI-H522 lung and 1.76 µM in the experiment with HOP-62 NSCLC. Also, the TGI came out at 4.91 µM in the experiment on OVCAR-8 ovarian; 3.83 µM in the experiment on MALME-3M melanoma; 6.88 µM in the experiment on CCRF-CEM leukemia; 3.59 µM with SF-295 CNS; 4.84 µM in the experiment on RPMI-8226 leukemia; 3.7 µM in the experiment with NCI-H226 lung. Besides, the TGI with NCI/ADR-RES ovarian came to 3.63 µM; with NCI-H23 lung it was 3.11 µM; in the experiment on NCI-H522 lung, 3.57 µM; with HOP-62 NSCLC it was 3.54 µM.

Regarding `C#CC1(O)C(COP(=O)(O)OC2CC(n3cc(F)c(=O)[nH]c3=O)OC2CO)OC(n2ccc(N)nc2=O)C1O` (stereo not drawn), the GI50 with OVCAR-8 ovarian is less than 0.01 µM; in the experiment with MALME-3M melanoma, 0.117 µM; in the experiment on CCRF-CEM leukemia, less than 0.0129 µM; in the experiment on SF-295 CNS it was less than 0.01 µM; with RPMI-8226 leukemia, less than 0.01 µM; in the experiment with NCI-H226 lung it was 0.0614 µM. Also, the GI50 in the experiment with NCI/ADR-RES ovarian was less than 0.012 µM; in the experiment on NCI-H23 lung it was less than 0.026 µM; in the experiment on NCI-H522 lung, less than 0.014 µM; with HOP-62 NSCLC, less than 0.01 µM. Besides, the TGI with OVCAR-8 ovarian was 14.5 µM; with MALME-3M melanoma, 5.07 µM; in the experiment with NCI-H226 lung, greater than 36.1 µM; in the experiment on NCI-H23 lung, greater than 38 µM; with NCI-H522 lung, 3.15 µM; in the experiment with HOP-62 NSCLC it was greater than 100 µM.
